Measurements reported in article PMC11413964, “Discovery of 1,3-disubstituted prop-2-en-1-one derivatives as inhibitors of neutrophilic inflammation via modulation of MAPK and Akt pathways” (Journal of Enzyme Inhibition and Medicinal Chemistry, 2024).

How the values were obtained:
[1] = test system: fMLF/cytochalasin B (CB)-activated human neutrophils; test: Superoxide anion generation (ferricytochrome c reduction) in fMLF/CB-activated human neutrophils; format: cell-based; conditions: Neutrophil, fMLF/CB stimulation, mean ± SEM (n = 3–5)
Procedure: (§1) The study involving neutrophils was approved by the Institutional Review Board of Chang Gung Memorial Hospital under IRB number: 201902217A3 and was conducted in accordance with the principles of the Declaration of Helsinki. Healthy volunteers aged 20–35 years provided signed informed consents for blood collection. Isolation of neutrophils was done using dextran sedimentation, Ficoll-Hypaque density gradient centrifugation, and hypotonic haemolysis. For the anti-inflammatory studies, neutrophils were suspended in Hank’s balanced salt solution (HBSS) containing 1 mM Ca^2+ at a pH of 7.4[72].
The reduction of ferricytochrome c was utilised to measure the production of SO anions in activated human neutrophils. […] The neutrophils were then stimulated with fMLF (0.1 μM) and CB (1 μg/mL) for 13 min. […] LY294002 was used as a positive control.

[2] = test system: ERK; test: Immunoblotting of ERK phosphorylation in fMLF-activated neutrophils; format: cell-based, human; conditions: 10 μM for 5 min, then fMLF 0.1 μM for 30 s
Procedure: (§2) Human neutrophils (2.5 × 10^7 cells/mL) were first subjected to DMSO (0.1%, serving as control) or experimental compounds at 37 °C for 5 min. Following this, cells were stimulated with fMLF (0.1 μM) for 30 s. […] Primary antibodies used included those for p38 (1:8000), phospho-p38 (1:3000), JNK (1:3000), phospho-JNK (1:3000), Akt (1:5000), phospho-Akt (Ser-473) (1:2000), ERK (1:8000), phospho-ERK (1:8000), and HRP-linked anti-rabbit IgG, to measure total and phosphorylated forms of MAPK and Akt proteins. The quantitative measurements for all samples were adjusted to correspond with the levels of the total protein present.

[3] = test system: fMLF/cytochalasin B (CB)-activated human neutrophils; test: Elastase release in fMLF/CB-activated human neutrophils; format: cell-based; conditions: fMLF/CB stimulation, mean ± SEM (n = 3–5)
Procedure: as §1
Neutrophils were subsequently stimulated with fMLF (0.1 μM) and CB (0.5 μg/mL) for 13 min. […] LY294002 was used as a positive control.

[4] = test system: Akt; test: Immunoblotting of Akt phosphorylation in fMLF-activated neutrophils; format: cell-based, human; conditions: 10 μM for 5 min, then fMLF 0.1 μM for 30 s
Procedure: as §2

[5] = test system: JNK; test: Immunoblotting of JNK phosphorylation in fMLF-activated neutrophils; format: cell-based, human; conditions: 10 μM for 5 min, then fMLF 0.1 μM for 30 s
Procedure: as §2

[6] = test system: p38 MAPK; test: Immunoblotting of p38 MAPK phosphorylation in fMLF-activated neutrophils; format: cell-based, human; conditions: 10 μM for 5 min, then fMLF 0.1 μM for 30 s
Procedure: as §2

- melting point: 132.3 to 133.3 °C
- IC50 [1]: 1.23 ± 0.27 µM
- IC50 ([3]; Homo sapiens, Neutrophil): 1.37 µM
- IC50 [3]: 2.22 ± 0.12 µM
Compound: COc1cccc(C(=O)/C=C/c2ccc([N+](=O)[O-])cc2)c1 [Compound 6a, (E)-1-(3-Methoxyphenyl)-3-(4-nitrophenyl)prop-2-en-1-one]
- inhibition at 10 µM ([1]; 10 μM compound): 99.69 ± 0.18%
- Effect on ERK phosphorylation [2]: did not alter the phosphorylation
- inhibition at 10 µM ([3]; Homo sapiens, Neutrophil, 10 μM compound): 84.5 ± 5.73%
- Effect on Akt phosphorylation [4]: significantly suppressed phosphorylation
- Effect on JNK phosphorylation [5]: significantly suppressed phosphorylation
- Effect on p38 phosphorylation [6]: did not alter the phosphorylation
